pIC50: −log10 of the molar value.
Each compound was assayed against T1, α4β1 integrin (Homo sapiens, UniProt P05556+P13612) (assay: U-937 cell adhesion to human VCAM-1 (α4β1 binding assay)). Details: U-937 cells, immobilized human VCAM-1; read-out: IC50 values in the α4β1 assays.
T1 construct: endogenous in cells; host or cells: U-937 cells
Assay type: cell-based
Protocol: U-937 Cell Adhesion to Human VCAM-1 (α4β1 Binding Assay)
Recombinant human soluble VCAM-1 (R&D Systems Ltd., UK) at 2 μg/ml in PBS was immobilized overnight onto microtiter plates. Unbound VCAM-1 was washed away and VCAM-1 coated plates were blocked with bovine serum albumin (BSA) 2,5% in PBS for 2 h at room temperature. U-937 cells were labelled with 5-carboxyfluorescein diacetate (5-CFDA) in order to detect bound cells to the wells. Test compounds were added to the wells followed by U-937 cells and the adhesion assay was performed for 1 h at 37° C. Following incubation, the wells were emptied and washed. Inhibition of binding was measured by the quantity of fluorescence bound to the plate for each of the various concentrations of test compound, as well as for controls containing no test compound, with a Cytofluor 2300 fluorescence measurement system.

T1 sequence (P13612 34-1032): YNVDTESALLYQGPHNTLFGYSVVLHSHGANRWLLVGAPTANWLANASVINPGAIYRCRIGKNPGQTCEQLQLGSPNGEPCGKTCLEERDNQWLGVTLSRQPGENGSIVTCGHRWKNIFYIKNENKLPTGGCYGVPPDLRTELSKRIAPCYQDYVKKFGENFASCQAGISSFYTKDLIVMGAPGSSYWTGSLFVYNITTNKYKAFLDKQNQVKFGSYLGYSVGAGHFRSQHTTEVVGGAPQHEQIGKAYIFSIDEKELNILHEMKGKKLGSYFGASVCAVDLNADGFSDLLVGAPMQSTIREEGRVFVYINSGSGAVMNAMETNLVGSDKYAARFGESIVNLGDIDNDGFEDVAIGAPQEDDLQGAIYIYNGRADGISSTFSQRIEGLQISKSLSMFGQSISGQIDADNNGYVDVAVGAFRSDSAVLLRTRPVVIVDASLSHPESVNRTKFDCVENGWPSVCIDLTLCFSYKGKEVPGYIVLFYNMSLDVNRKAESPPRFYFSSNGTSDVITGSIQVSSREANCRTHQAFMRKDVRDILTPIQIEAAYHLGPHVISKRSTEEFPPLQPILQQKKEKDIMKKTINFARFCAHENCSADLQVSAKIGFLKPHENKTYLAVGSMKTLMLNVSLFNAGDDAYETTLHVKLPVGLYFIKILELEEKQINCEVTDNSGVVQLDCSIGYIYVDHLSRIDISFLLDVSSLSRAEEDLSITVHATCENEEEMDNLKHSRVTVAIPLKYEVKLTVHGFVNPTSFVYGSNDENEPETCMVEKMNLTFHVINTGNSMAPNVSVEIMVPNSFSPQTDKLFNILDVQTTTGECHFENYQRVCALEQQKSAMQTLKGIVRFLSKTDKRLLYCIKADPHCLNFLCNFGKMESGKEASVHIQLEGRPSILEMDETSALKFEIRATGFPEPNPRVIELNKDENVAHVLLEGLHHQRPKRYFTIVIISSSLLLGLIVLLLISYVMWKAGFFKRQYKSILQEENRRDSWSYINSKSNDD
T1 sequence (P05556 21-798): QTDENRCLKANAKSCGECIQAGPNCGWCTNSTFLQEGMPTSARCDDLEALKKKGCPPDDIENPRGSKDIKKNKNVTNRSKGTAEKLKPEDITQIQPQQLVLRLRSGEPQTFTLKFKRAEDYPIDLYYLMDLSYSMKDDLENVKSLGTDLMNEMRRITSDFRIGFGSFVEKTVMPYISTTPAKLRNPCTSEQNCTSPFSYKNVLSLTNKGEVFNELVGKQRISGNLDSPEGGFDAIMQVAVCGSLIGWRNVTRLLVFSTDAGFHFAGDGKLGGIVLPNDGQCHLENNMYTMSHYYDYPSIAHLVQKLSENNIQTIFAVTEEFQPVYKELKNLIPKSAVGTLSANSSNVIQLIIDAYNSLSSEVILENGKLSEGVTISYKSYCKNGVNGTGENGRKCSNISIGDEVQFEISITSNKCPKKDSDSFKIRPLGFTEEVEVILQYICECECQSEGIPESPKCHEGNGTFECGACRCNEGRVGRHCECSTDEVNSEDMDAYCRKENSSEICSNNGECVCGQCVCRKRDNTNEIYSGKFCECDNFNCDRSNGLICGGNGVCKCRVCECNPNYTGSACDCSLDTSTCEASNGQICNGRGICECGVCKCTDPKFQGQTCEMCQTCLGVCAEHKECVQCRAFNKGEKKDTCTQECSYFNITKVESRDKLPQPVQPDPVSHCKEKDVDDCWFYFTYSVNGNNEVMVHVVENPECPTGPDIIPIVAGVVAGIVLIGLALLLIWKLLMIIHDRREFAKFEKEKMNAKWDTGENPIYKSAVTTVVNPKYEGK

Row | SMILES | pIC50
1 | CN(C(=O)N[C@@H](Cc1ccc(NC(=O)c2c(Cl)cccc2Cl)cc1)C(=O)O)c1ccccc1C(=O)N(C)C1CCCCC1 [Example 32] | > 7.00
2 | O=C(Nc1ccccc1S(=O)(=O)N1CCCCC1)N[C@@H](Cc1ccc(NC(=O)c2c(Cl)cncc2Cl)cc1)C(=O)O [Example 62, (S)-3-{4-[(3,5-Dichloropyridine-4-carbonyl)amino]phenyl}-2-{3-[2-(piperidine-1-sulfonyl)phenyl]ureido}propionic acid] | > 7.00
3 | O=C(Nc1cccc(C(=O)c2ccccc2)c1)N[C@@H](Cc1ccc(NC(=O)c2c(Cl)cncc2Cl)cc1)C(=O)O [Example 77, (S)-3(4-{[1-(3,5-Dichloropyridin-4-yl)methanoyl]amino}phenyl)-2-{3-[3-(1-phenylmethanoyl)phenyl]ureido}propionic acid] | > 7.00
4 | CN(C(=O)c1ccccc1N(Cc1ccccc1)C(=O)N[C@@H](Cc1ccc(NC(=O)c2c(Cl)cncc2Cl)cc1)C(=O)O)C1CCCCC1 [Example 85] | > 7.00
5 | CN(C(=O)c1ccccc1NC(=O)N[C@@H](Cc1ccc(NC(=O)c2c(Cl)cncc2Cl)cc1)C(=O)O)C1CCCCC1 [Example 80] | > 7.00
6 | CN(C(=O)c1ccccc1N(CC1CCCCC1)C(=O)N[C@@H](Cc1ccc(NC(=O)c2c(Cl)cncc2Cl)cc1)C(=O)O)C1CCCCC1 [Example 86] | > 7.00
7 | O=C(Nc1cccnc1S(=O)(=O)c1ccccc1)N[C@@H](Cc1ccc(NC(=O)c2c(Cl)cccc2Cl)cc1)C(=O)O [Example 58, (S)-2-[3-(2-Benzenesulfonylpyridin-3-yl)ureido]-3-[4-(2,6-dichlorobenzoylamino)phenyl]propionic acid] | > 7.00
8 | O=C(Nc1cc(Cl)ccc1S(=O)(=O)c1ccccc1)N[C@@H](Cc1ccc(NC(=O)c2c(Cl)cccc2Cl)cc1)C(=O)O [Example 48, (S)-2-[3-(2-Benzenesulfonyl-5-chlorophenyl)ureido]-3-[4-(2,6-dichlorobenzoylamino)phenyl]propionic acid] | > 7.00
9 | O=C(Nc1ccccc1Sc1c(Cl)cncc1Cl)N[C@@H](Cc1ccc(NC(=O)c2c(Cl)cncc2Cl)cc1)C(=O)O [Example 98, (S)-3-(4-{[1-(3,5-Dichloropyridin-4-yl)methanoyl]amino}phenyl)-2-{3-[2-(3,5-dichloropyridin-4-ylsulfanyl)phenyl]ureido}propionic acid] | > 7.00
10 | O=C(Nc1cc(Cl)ccc1S(=O)(=O)c1ccccc1)N[C@@H](Cc1ccc(NC(=O)c2c(Cl)cncc2Cl)cc1)C(=O)O [Example 68, (S)-2-[3-(2-Benzenesulfonyl-5-chlorophenyl)ureido]-3-{4-[(3,5-dichloropyridine-4-carbonyl)amino]phenyl}propionic acid] | > 7.00
11 | Cc1ccc(S(=O)(=O)c2ccc(Cl)c(NC(=O)N[C@@H](Cc3ccc(NC(=O)c4c(Cl)cccc4Cl)cc3)C(=O)O)c2)cc1 [Example 54, (S)-2-{3-[2-Chloro-5-(toluene-4-sulfonyl)phenyl]ureido}-3-[4-(2,6-dichlorobenzoylamino)phenyl]propionic acid] | > 7.00
12 | COc1ccc(OC)c(S(=O)(=O)c2ccc(Cl)cc2NC(=O)N[C@@H](Cc2ccc(NC(=O)c3c(Cl)cncc3Cl)cc2)C(=O)O)c1 [Example 64, (S)-2-{3-[5-Chloro-2-(2,5-dimethoxybenzenesulfonyl)phenyl]ureido}-3-{4-[(3,5-dichloropyridine-4-carbonyl)amino]phenyl}propionic acid] | > 7.00
13 | O=C(Nc1ccccc1S(=O)(=O)c1ccccc1)N[C@@H](Cc1ccc(NC(=O)c2c(Cl)cccc2Cl)cc1)C(=O)O [Example 36, (S)-2-[3-(2-Benzenesulfonylphenyl)ureido]-3-[4-(2,6-dichlorobenzoylamino)phenyl]propionic acid] | > 7.00
14 | CN(C(=S)N[C@@H](Cc1ccc(NC(=O)c2c(Cl)cncc2Cl)cc1)C(=O)O)c1ccccc1C(=O)N(C)C1CCCCC1 [Example 146] | > 7.00
15 | O=C(Nc1ccccc1Sc1ccccc1)N[C@@H](Cc1ccc(NC(=O)c2c(Cl)cccc2Cl)cc1)C(=O)O [Example 44, (S)-3-[4-(2,6-Dichlorobenzoylamino)phenyl]-2-[3-(2-phenylsulfanylphenyl)ureido]propionic acid] | > 7.00
16 | CN(C(=O)N[C@@H](Cc1ccc(NC(=O)c2c(Cl)cncc2Cl)cc1)C(=O)O)c1ccccc1S(=O)(=O)N1CCCCC1 [Example 88, (S)-3-(4-{[1-(3,5-Dichloropyridin-4-yl)methyanoyl]amino}phenyl)-2-{3-methyl-3-[2-(piperidine-1-sulfonyl)phenyl]ureido}propionic acid.] | > 7.00
17 | O=C(Nc1ccccc1S(=O)(=O)C1CCCC1)N[C@@H](Cc1ccc(NC(=O)c2c(Cl)cncc2Cl)cc1)C(=O)O [Example 92, (S)-2-[3-(2-Cyclopentanesulfonylphenyl)ureido]-3-(4-{[1-(3,5-dichloropyridin-4-yl)methanoyl]amino}phenyl)propionic acid] | > 7.00
18 | CN(C(=O)c1ccccc1NC(=O)N[C@@H](Cc1ccc(NC(=O)c2c(Cl)cccc2Cl)cc1)C(=O)O)C1CCCCC1 [Example 2] | > 7.00

Other lines, results leading:

Row | pIC50 | SMILES
19 | > 7.00 | O=C(Nc1ccccc1S(=O)(=O)N1CCCCC1)N[C@@H](Cc1ccc(Nc2nccc3cnccc23)cc1)C(=O)O [Example 124, (S)-3-[4-([2,6]Naphthyridin-1-ylamino)phenyl]-2-{3-[2-(piperidine-1-sulfonyl)phenyl]ureido}propionic acid]
20 | > 7.00 | O=C(Nc1ccccc1S(=O)(=O)N1CCCCC1)N[C@@H](Cc1ccc(Oc2nccc3cnccc23)cc1)C(=O)O [Example 136, (S)-3-[4-([2,6]Naphthyridin-1-yloxy)phenyl]-2-{3-[2-(piperidine-1-sulfonyl)phenyl]ureido}propionic acid]
21 | > 7.00 | O=C(Nc1ccc(C[C@H](NC(=S)Nc2ccccc2S(=O)(=O)N2CCCCC2)C(=O)O)cc1)c1c(Cl)cncc1Cl [Example 147]
22 | > 7.00 | O=C(Nc1ccccc1S(=O)(=O)c1ccccc1)N[C@@H](Cc1ccc(NC(=O)c2c(Br)cncc2Br)cc1)C(=O)O [Example 106, (S)-2-[3-(2-Benzenesulfonylphenyl)ureido]-3-(4-{[1-(3,5-dibromopyridin-4-yl)-methanoyl]amino}phenyl)propionic acid]
23 | > 7.00 | O=C(Nc1ccccc1S(=O)(=O)N1CCCCC1)N[C@@H](Cc1ccc(Nc2nccc3ccncc23)cc1)C(=O)O [Example 130, (S)-3-[4-([2,7]Naphthyridin-1ylamino)-phenyl]-2-{3-[2-(piperidine-1-sulfonyl)phenyl]ureido}propionic acid]
24 | > 7.00 | O=C(Nc1ccccc1S(=O)(=O)c1ccccc1)N[C@@H](Cc1ccc(Nc2nccc3ccncc23)cc1)C(=O)O [Example 128, (S)-2-[3-(2-Benzenesulfonylphenyl)ureido]-3-[4-([2,7]naphthyridin-1-ylamino)phenyl]propionic acid]
25 | > 7.00 | O=C(Nc1ccccc1S(=O)(=O)c1ccccc1)N[C@@H](Cc1ccc(Nc2nccc3cnccc23)cc1)C(=O)O [Example 122, (S)-2-[3-(2-Benzenesulfonylphenyl)ureido]-3-[4-([2,6]naphthyridin-1-ylamino)phenyl]propionic acid]
26 | > 7.00 | O=C(Nc1ccccc1S(=O)(=O)c1ccccc1)N[C@@H](Cc1ccc(NCc2c(Cl)cncc2Cl)cc1)C(=O)O [Example 110, (S)-2-[3-(2-Benzenesulfonylphenyl)ureido]-3-{4-[(3,5-dichloropyridin-4-ylmethyl)amino]phenyl}propionic acid]

— US7253171B2 (Laboratorios Almirall, S.A., priority 2001, dated 2007)
